Experimental data reported in patent US7297691B2, “Treatment of sleep disorders with cholinesterase inhibitors” (priority 2003, dated 2007).
Structures can show the parent of a compound that is named as a salt.

Key:
[1] = side effects in patients treated; assay type: in vivo, human
[2] = cited from earlier work
[3] = cited from earlier work; remark: listed apart in the source
[4] = in vivo; cited from earlier work
[5] = in humans; cited from earlier work
[6] = test system: cholinesterase in hemolyzed whole blood (hemolysate); assay: SIGMA DIAGNOSTICS CHOLINESTERASE (PTC) kit, hemolysate ChE activity in blood samples; assay type: biochemical, human; conditions: for Hemolysate ChE activity: blood samples from 3 patients, no Nivalin = 1.00
Experimental: (§1) SIGMA DIAGNOSTICS® CHOLINESTERASE (PTC) kit, available from Sigma Diagnostics, can be used for determining the activity and selectivity of cholinesterase inhibitors.
(§2) Reactions involved in the cholinesterase assay are as follows:
(§3) [drawing 4] 5-thio-2-nitrobenzoic acid is assessed by measuring the absorbance at 405 nm. The rate of change in absorbance at 405 nm is directly proportional to cholinesterase activity.
(§4) The activity of erythrocyte cholinesterase may be calculated on the basis of the measurement of butyrylcholinesterase (pseudocholinesterase) in serum and cholinesterase in hemolyzed whole blood (hemolysate), both measured simultaneously by the method described above, and evaluated according to the hematocrit value according to the formula HchE=(EchE×Hct*)+(PchE×(1−Hct*)) Therefore, EchE=(HchE−(PchE×(1−Hct*))/Hct*. • Hematocrit value expressed as decimal equivalent (i.e. 25%=0.25) In the above formulae, EChE is erythrocyte cholinesterase activity, PChE is plasma cholinesterase activity, HChE is hemolysate cholinesterase activity, and Hct is hematocrit value of the sample.
(§5) Another way of assessing the cholinesterase activity is to measure the plasma cholinesterase and the cholinesterase in purified hemolyzed erythrocytes. By doing this, the values are obtained directly.
(§6) Blood samples from 3 patients are tested with the Sigma test.

[7] = biological target: T1, butyrylcholinesterase (pseudocholinesterase) in serum (Homo sapiens, UniProt P06276); assay: SIGMA DIAGNOSTICS CHOLINESTERASE (PTC) kit, serum ChE activity in blood samples; assay type: biochemical; conditions: for Serum ChE activity: blood samples from 3 patients, no Nivalin = 1.00
T1 construct: butyrylcholinesterase (pseudocholinesterase) in serum; from tissue; host or cells: serum of patients
Experimental: as §1, §2, §3, §4, §5, §6

[8] = 1.25 μg/ml Nivalin added in vitro
[9] = 2.50 μg/ml Nivalin added in vitro
[10] = 1.25 and 2.5 μg/ml added in vitro

T1 sequence (P06276 29-602): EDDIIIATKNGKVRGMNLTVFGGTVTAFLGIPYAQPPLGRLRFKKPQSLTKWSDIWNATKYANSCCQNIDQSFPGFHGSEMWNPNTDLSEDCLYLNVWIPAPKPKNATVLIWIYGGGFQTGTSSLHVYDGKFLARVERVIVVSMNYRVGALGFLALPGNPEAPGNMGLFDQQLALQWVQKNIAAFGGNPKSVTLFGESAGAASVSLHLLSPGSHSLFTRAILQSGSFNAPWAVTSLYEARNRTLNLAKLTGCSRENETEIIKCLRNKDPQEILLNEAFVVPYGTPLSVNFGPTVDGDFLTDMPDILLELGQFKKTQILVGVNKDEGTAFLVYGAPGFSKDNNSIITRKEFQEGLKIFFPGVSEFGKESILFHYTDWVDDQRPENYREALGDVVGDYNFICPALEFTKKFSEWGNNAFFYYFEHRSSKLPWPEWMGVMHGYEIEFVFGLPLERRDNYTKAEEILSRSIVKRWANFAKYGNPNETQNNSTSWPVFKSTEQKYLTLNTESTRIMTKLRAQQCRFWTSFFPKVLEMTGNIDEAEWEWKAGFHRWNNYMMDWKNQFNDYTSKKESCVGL

Row | Compound | more severe side effects, share of patients [1] | vomiting and dizziness, share of patients ([1]; disappearing after about one week in most cases) | slight nausea, share of cases ([1]; disappearing after about one week of treatment) | toxicity ([2]; in therapeutic concentrations) | severe side effects ([2]; in therapeutically effective dosages) | reported cases of liver toxicity or serious side effects ([2]; use as anticurare agent in anesthesiology since around 1958) | solubility in water ([3]; at room temperature) | complete elimination of metabolites and galantamine [4] [h] | passing the blood-brain barrier [5] | Hemolysate ChE activity [6, 8] | Hemolysate ChE activity [6, 9] | change of hemolysate cholinesterase activity with increased concentration [6, 10] | Serum ChE activity [7, 8] | Serum ChE activity [7, 9] | change of serum activity as a response to the addition [7, 10] | lipid solubility [3] | elimination half life [4]
1 | [4aS-(4aα,6β,8aR*)]-4a,5,9,10 11,12-hexahydro-3-methoxy-11-methyl-6H-benzofuro[3a,3,2-ef][2]benzazepin-6-ol [Galantamine] | 4-6% | 5-10% | about 30% | relatively low toxicity | no severe side effects | without any reported case | only sparingly soluble | 72 | – | – | – | – | – | – | – | – | –
2 | COc1ccc2c3c1O[C@H]1C[C@@H](O)C=C[C@@]31CCN(C)C2 [Nivalin, Galantamine hydrobromide] | – | – | – | – | – | – | – | – | transverses the blood brain barrier easily | 0.96 | 0.86 | significant reduction | 0.98 | 0.97 | do not show any statistically significant change | lipid soluble | over four hours
